In US20250268928A1, “USE OF BACTERIORUBERINS AND GLYCOSYL DERIVATIVES THEREOF TO PREVENT AND TREAT DISEASES INVOLVING DYSREGULATED PROTEIN AGGREGATION, SUCH AS NEURODEGENERATIVE DISEASES” (NAOS INSTITUTE OF LIFE SCIENCE, priority 2020, published 2025):

What was measured:
Murine cortical neurons = experiment: Neural network integrity of cortical neurons damaged by glutamate (MAP-2 immunolabeling); type: cell-based; conditions: 48 hours after, FIG. 4
Method: (§1) Murine cortical neurons were cultured as described by Callizot et al., 2013. The cells were mechanically dissociated by three forced passages through the tip of a 10 mL pipette. The cells were then centrifuged at 515×g for 10 minutes at 4° C. The supernatant was removed and the pellet was taken up in a defined culture medium constituted by Neurobasal medium with a 2% solution of B27 supplement, 2 mmol/litre of L-glutamine, 2% of PS solution and 10 ng/ml of BDNF. The viable cells were counted in a Neubauer cytometer, using the trypan blue exclusion test. The cells were seeded in a density of 25000 per well in a 96-well plate pre-coated with poly-L-lysine and were cultured at 37° C. in a CO2 incubator (5%). The medium was changed every two days. The experiments were subsequently carried out on 96-well plates (n=6 culture wells per condition). In the 96 wells of each plate, only 60 were used. The wells in the first and last rows and columns were not used in order to avoid any edge effects and were filled with sterile water.
(§2) The compounds to be tested were dissolved in DMSO and the concentration was adjusted in order to ensure a concentration of DMSO in the culture medium of 0.1%. […]
(§3) For each condition, 30 images per well were automatically recorded using ImageXpress (Molecular Devices) at 20× magnification. […]
(§4) The data were expressed as a percentage of the control. […]

tau protein = experiment: Hyperphosphorylation of tau protein (AT100) in cortical neurons damaged by glutamate; type: cell-based, Murine; conditions: % of the negative control (100%=value 0); glutamate 20 μM, 20 min; 48 hours after; SBE 1 μm, BDNF 50 ng/mL; FIG. 5
Method: as §1, §2, §3, §4

[1] = molecular target: T1, Bovine alkaline phosphatase (AP) (Bos taurus, UniProt P19111); experiment: AP-heat test (protection of alkaline phosphatase against heat denaturing, chaperone effect); type: biochemical; conditions: 55° C. for 1 hour; all test concentrations (20 μM, 10 μM, 5 μM, 2.5 μM, 1.25 μM); FIG. 2
T1 construct: purchased Sigma P0114
T1 sequence (P19111 20-506 limits assumed): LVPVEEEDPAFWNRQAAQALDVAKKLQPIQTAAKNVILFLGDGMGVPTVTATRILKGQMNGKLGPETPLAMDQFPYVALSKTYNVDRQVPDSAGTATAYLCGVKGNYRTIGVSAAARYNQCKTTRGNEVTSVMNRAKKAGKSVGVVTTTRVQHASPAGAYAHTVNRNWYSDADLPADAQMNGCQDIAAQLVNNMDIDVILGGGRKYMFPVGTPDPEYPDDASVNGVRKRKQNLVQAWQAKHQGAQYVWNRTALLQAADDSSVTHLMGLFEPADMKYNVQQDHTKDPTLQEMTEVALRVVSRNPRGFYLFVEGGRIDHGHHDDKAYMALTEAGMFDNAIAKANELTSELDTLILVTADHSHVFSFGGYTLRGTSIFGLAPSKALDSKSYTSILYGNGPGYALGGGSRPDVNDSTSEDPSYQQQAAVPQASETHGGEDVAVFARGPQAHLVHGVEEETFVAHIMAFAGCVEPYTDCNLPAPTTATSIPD
Description: The aim of this study was to compare the protein protection capacities of the various components of an extract of carotenoids of the actinobacterium A. agilis separated by chromatography and HPLC. More specifically, we tested all the major fractions to assess their ability to protect the enzyme alkaline phosphatase: • against denaturing via their effect of protecting proteins from denaturing (AP-heat test) (chaperone effect) • against oxidation (APox test) (Protective effect against oxidative stress).
This test is derived from a modification of the APox test for measuring the protection potential of proteins not just against oxidative stress, but against denaturing (heat stress). In fact, under the effect of heat, proteins are denatured and enzymes lose their activity. […]
• Bovine alkaline phosphatase (AP) (Sigma P0114) • Liquid substrate of alkaline phosphatase (Sigma P7998) • Heating block • Flat-bottomed 96-well plate • Plate reader at 405 nm […]
Read OD at 405 nm for 20 min at 37° C.
The protective power of a “molecule X” against denaturing (PPX) is calculated by taking the ratio of the activity of alkaline phosphatase (PA) at 55° C. […]
The activity of the enzyme for each condition is calculated by taking the mean of the optical density values measured at 405 nm for the replicates, from which values the mean value of what are known as the “blank” wells (reagents alone) is subtracted, i.e.: […]

[2] = molecular target: T1, Bovine alkaline phosphatase (AP); experiment: APox test (protection of alkaline phosphatase against oxidative stress); type: biochemical; conditions: hydrogen peroxide/FeO4S, 15 min at 37° C.; all test concentrations (20 μM to 1.25 μM); FIG. 3
Description: The aim of this study was to compare the protein protection capacities of the various components of an extract of carotenoids of the actinobacterium A. agilis separated by chromatography and HPLC. More specifically, we tested all the major fractions to assess their ability to protect the enzyme alkaline phosphatase: • against denaturing via their effect of protecting proteins from denaturing (AP-heat test) (chaperone effect) • against oxidation (APox test) (Protective effect against oxidative stress). This test is described in patent application FR 3002544 A1 and measures the ability of a substance to protect the enzyme alkaline phosphatase from oxidative stress. • Bovine alkaline phosphatase (AP) (Sigma P0114) • Liquid substrate for AP (Sigma P7998) • 30% hydrogen peroxide • FeO4S solution (30 mg in 1 mL H2O) • Flat-bottomed 96-well plate • Plate reader at 405 nm The Following were Deposited in Each Well: • 10 μL of AP diluted to 10^−5 in 10^−2M MgSO4. • 4 μL of test molecule, solvent (negative control) or H2O (positive control)+6 μL of H2O • 30 μL of a hydrogen peroxide solution (from a stock solution composed of 940 μL H2O+40 μL 30% H2O2+20 μL 10^−2 FeO4S) or 30 μL of H2O (positive control) • Allow to incubate for 15 min at 37° C. • Add 50 μL of liquid substrate. • Read OD at 405 nm for 20 min at 37° C. […]

percentage of protection against oxidative stress (APOX test) [2]	Molecule	reduction in neural network density (Murine cortical neurons; glutamate poisoning alone (20 μM, 20 min)/vehicle) [%]	hyperphosphorylation of tau protein (AT100 zone, tau/MAP-2 overlap) (tau protein)	percentage protection against heat (AP-heat test) [1]	total neural network (MAP-2 positive neural length) (Murine cortical neurons; percentage of control, glutamate 20 μM, 20 min, 1 hour pre-incubation, SBE 1 μm, BDNF 50 ng/mL) [%]
–	N[C@@H](CCC(=O)O)C(=O)O [Glutamate, reference compound]	60	+193%	–	–
particularly pronounced	Diglycosylated bacterioruberin [BR-DiG]	–	–	protect the protein more effectively than the BR itself	–
–	Monoglycosylated bacterioruberin [BR-MonoG]	–	–	protect the protein more effectively than the BR itself	–
–	BDNF: neurotrophin used as a positive control (protein, UniProt P23560 19-247, looked up) Neurotrophic factor BDNF …: APMKEANIRGQGGLAYPGVRTHGTLESVNGPKAGSRGLTSLADTFEHVIEELLDEDQKVRPNEENNKDADLYTSRVMLSSQVPLEPPLLFLLEEYKNYLDAANMSMRVRRHSDPARRGELSVCDSISEWVTAADKKTAVDMSGGTVTVLEKVPVSKGQLKQYFYETKCNPMGYTKEGCRGIDKRHWNSQCRTTQSYVRALTMDSKKRIGWRFIRIDTSCVCTLTIKRGR	–	+121%	–	85
